According to ChEMBL document CHEMBL1157811, “Synthesis, anticoagulant and PIVKA-II induced by new 4-hydroxycoumarin derivatives” (Bioorg Med Chem, 2010):
Activity calls are given as the source filed them. The rule behind the calls is not given here.

Columns and labels:
HepG2 [1] = assay: Anticoagulant activity in human HepG2 cells assessed as accumulation of des-gamma carboxyprothrombin at 3.3 uM after 24 hrs by ELISA; format: functional, cell-based
HepG2 [2] = assay: Anticoagulant activity in human HepG2 cells assessed as accumulation of des-gamma carboxyprothrombin at 30 uM after 24 hrs by ELISA; format: functional, cell-based
Mus musculus [3] = assay: Ex vivo anticoagulant activity in albino mouse assessed as prothrombin time at 150 mg/kg, po administered daily for 3 successive days measured after 24 hrs of last dose; format: functional
HepG2 [4] = assay: Anticoagulant activity in human HepG2 cells assessed as accumulation of des-gamma carboxyprothrombin at 30 uM after 24 hrs by ELISA relative to warfarin; format: functional
HepG2 [5] = assay: Anticoagulant activity in human HepG2 cells assessed as accumulation of des-gamma carboxyprothrombin at 10 uM after 24 hrs by ELISA relative to warfarin; format: functional
Mus musculus [6] = assay: Ex vivo anticoagulant activity in albino mouse assessed as blood clotting time at 150 mg/kg, po administered daily for 3 successive days measured after 24 hrs of last dose; format: functional
HepG2 [7] = assay: Anticoagulant activity in human HepG2 cells assessed as accumulation of des-gamma carboxyprothrombin at 3.33 uM after 24 hrs by ELISA relative to warfarin; format: functional
HepG2 [8] = assay: Anticoagulant activity in human HepG2 cells assessed as accumulation of des-gamma carboxyprothrombin at 1.1 uM after 24 hrs by ELISA relative to warfarin; format: functional, cell-based
[9] = Toxicity in po dosed albino mouse assessed as mortality administered daily for 3 successive days; format: organism-based; conditions: in vivo
HepG2 [10] = assay: Anticoagulant activity in human HepG2 cells assessed as accumulation of des-gamma carboxyprothrombin after 24 hrs by ELISA; format: functional, cell-based

Row | SMILES | Activity (HepG2 [2]) | Time (Mus musculus [3]) [min] | Activity (HepG2 [4]) [%] | Activity (HepG2 [5]) | Time (Mus musculus [6]) [s] | further results
1 | COc1cc(C2CC(c3c(O)c4ccccc4oc3=O)=NN2C(=S)Nc2ccccc2)cc(OC)c1OC (stereo not given) |  |  |  |  |  | Activity (HepG2 [1]): inactive
2 | COc1cc(C2CC(c3c(O)c4ccccc4oc3=O)=NC(S)=N2)cc(OC)c1OC (stereo not given) | Active | 0.173 | 13 | 5.2% | 15.83 | 
3 | CC(=O)N1N=C(c2c(O)c3ccccc3oc2=O)CC1c1cccnc1 (stereo not given) |  | 3.373 |  |  | 20.83 | Activity (HepG2 [7]): 11.45%; Activity (HepG2 [8]): inactive
4 | O=c1oc2ccccc2c(O)c1C1=NN(c2ccccc2)C(c2cccnc2)C1 (stereo not given) |  | 0.827 | 8.7 | 8.4% | 22.5 | LD50 at 3 days [9]: 1790 mg/kg
5 | O=c1oc2ccccc2c(O)c1C1=NNC(c2cccnc2)C1 (stereo not given) | inactive | 0.53 |  |  | 17.67 | 
6 | O=c1oc2ccccc2c(O)c1C1=NN(C(=S)Nc2ccccc2)C(c2cccnc2)C1 (stereo not given) | Active | 3.505 | 19.4 | 19.3% | 12.17 | 
7 | COc1ccc(C2CC(c3c(O)c4ccccc4oc3=O)=NN2C(=S)Nc2ccccc2)cc1 (stereo not given) | inactive |  |  |  |  | 
8 | COc1ccc(C2CC(c3c(O)c4ccccc4oc3=O)=NN2)cc1 (stereo not given) | Active |  | 17.3 | 17.76% |  | 
9 | COc1cc(-c2cc(-c3c(O)c4ccccc4oc3=O)nc(N)c2C#N)cc(OC)c1OC |  | 0.193 |  |  | 9.5 | 
10 | NC(=S)N1N=C(c2c(O)c3ccccc3oc2=O)CC1c1cccnc1 (stereo not given) | Active | 4.017 | 11.2 | 9.1% | 16.67 | 
11 | COc1cc(C2CC(c3c(O)c4ccccc4oc3=O)=NN2c2ccccc2)cc(OC)c1OC (stereo not given) |  |  |  |  |  | Activity (HepG2 [1]): inactive
12 | COc1cc(C2CC(c3c(O)c4ccccc4oc3=O)=NN2)cc(OC)c1OC (stereo not given) | inactive |  |  |  |  | 
13 | O=c1oc2ccccc2c(O)c1C1=NC(S)=NC(c2cccnc2)C1 (stereo not given) |  |  | 8 | inactive |  | 
14 | N#Cc1c(-c2ccco2)cc(-c2c(O)c3ccccc3oc2=O)nc1N | Active |  | 10 | 7.4% |  | 
15 | N#Cc1c(-c2ccco2)cc(-c2c(O)c3ccccc3oc2=O)[nH]c1=O |  |  | 8.8 | 10% |  | 
16 | COc1cc(-c2cc(-c3c(O)c4ccccc4oc3=O)[nH]c(=O)c2C#N)cc(OC)c1OC | inactive | 0.192 |  |  | 15.67 | 
17 | CC(=O)CC(c1ccccc1)c1c(O)c2ccccc2oc1=O (stereo not given) [WARFARIN] |  | 4.445 |  |  | 18.17 | Activity (HepG2 [10]): Dose-dependent effect; LD50 at 3 days [9]: 760 mg/kg
18 | COc1ccc(C2CC(c3c(O)c4ccccc4oc3=O)=NN2C(N)=S)cc1 (stereo not given) | Active |  | 18.1 | 13.7% |  | 
19 | N#Cc1c(-c2cccnc2)cc(-c2c(O)c3ccccc3oc2=O)[nH]c1=O |  |  |  | 10% |  | Activity (HepG2 [7]): inactive
